According to patent US9139585B2 (Merck Sharp & Dohme Corp., priority 2011, dated 2015):
pIC50: −log10 of the molar value. Like-named read-outs stand apart in the source and are kept apart here.

Key:
hROMK (hKir1.1) = hROMK (hKir1.1) (Homo sapiens (Human), UniProt P48048); assay: Thallium Flux Assay (ROMK channel functional thallium flux, FLIPR-Tetra); assay type: cell-based
Description: Another ROMK functional assay makes use of the ability of thallium to permeate through open ROMK channels and increase the fluorescence of a dye previously loaded into the cells. Under control conditions, cells loaded with dye and exposed to thallium-containing medium display a time-dependent increase in fluorescence, the rate of which depends on number of functional channels. When cells are incubated in the presence of a channel inhibitor, the increase in fluorescence is attenuated in a concentration-dependent manner, and IC50 values of inhibition by compounds can be accurately determined. This assay has been established with cell lines expressing either human, or rat ROMK channels, and operates in 384-well format.
HEK293 cells stably expressing hROMK (hKir1.1) were grown at 37° C. in a 10% CO2 humidified incubator in complete growth media: Dulbecco's Modified Eagle Medium supplemented with non-essential amino acids, Penicillin/Streptomycin/Glutamine, G418 and FBS. At >80% confluency, the media was aspirated from the flask and the sample was rinsed with 10 ml Calcium/Magnesium-free PBS. […] To dislodge the cell, the side of the flask was gently banged with a hand. The cells were triturated completely and then transferred to 25 ml complete media. The sample was then centrifuged at 1,500 rpm for 6 minutes, followed by resuspension in complete growth media and then cell concentration was determined. […] Under ideal growth conditions and appropriate tissue culture practices, this cell line is stable for 40-45 passages.
FluxOR Kit Components (Invitrogen F10017)
• FluxOR™ Reagent (Component A) • FluxOR™ Assay Buffer (Component B)—10× Concentrate • PowerLoad™ Concentrate (Component C)—100× Concentrate • Probenecid (Component D)—Lyophilized sample is kept at −20° C. Water soluble, 100× after solubilization in 1 ml water. […] Store at 4° C. • Thallium sulfate (Tl2SO4) Concentrate (Component G)—50 mM in water. Store at 4° C. • DMSO (dimethyl sulfoxide, Component H)—1 ml (100%) Reagent Preparation— FluxOR Working Solutions • 1000× FluxOR™ Reagent: Reconstitute a vial of component A in 100 μl DMSO; Mix well; Store 10 μl aliquots at −20° C. • 1× FluxOR™ Assay Buffer: Dilute Component B 10-fold with water; Adjust pH to 7.4 with Hepes/NaOH; Filter and store at 4° C. • Probenecid/Assay Buffer: 100 ml of 1× FluxOR™ Assay Buffer; 1 ml of reconstituted component D; Store at 4° C. • Loading Buffer (per microplate): 10 μl 1000× FluxOR™ Reagent; 100 μl component C; 10 ml Probenecid/Assay Buffer • Compound Buffer (per microplate): 20 ml Probenecid/Assay Buffer; 0.3 mM ouabain (10 mM ouabain in water can be stored in amber bottle/aluminum foil at room temperature);
Test compound • 1× FluxOR™ Chloride-Free Buffer: Prepare 1× working solution in water. Can be stored at room temperature • Stimulant Buffer (prepared at 5× final concentration in 1× FluxOR™ Chloride-Free Buffer): 7.5 mM Thallium sulfate and 0.75 mM Potassium sulfate (to give a final assay concentration of 3 mM Thallium/0.3 mM Potassium). Store at 4° C. when not in use. If kept sterile, this solution is good for months. Assay Protocol—
The ROMK channel functional thallium flux assay is performed in 384 wells, using the FLIPR-Tetra instrument. HEK-hKir1.1 cells are seeded in Poly-D-Lysine microplates and kept in a 37° C.-10% CO2 incubator overnight. On the day of the experiment, the growth media is replaced with the FluxOR™ reagent loading buffer and incubated, protected from light, at ambient temperature (23-25° C.) for 90 min. The loading buffer is replaced with assay buffer±test compound followed by 30 min incubation at ambient temperature, where the Thallium/Potassium stimulant is added to the microplate.
• 1. Seed HEK-hKir1.1 cells (50 μl at 20,000 cells/well) in 384-well PDL coated Microplates • 2. Allow cells to adhere overnight in humidified 37° C./10% CO2 incubator • 3. Completely remove cell growth media from microplate and replace with 25 μl loading buffer • 4.

Kir1.1 (ROMK1) = Kir1.1 (ROMK1) (Homo sapiens (Human), UniProt P48048); assay: Electrophysiology Assay (whole cell voltage clamp, IonWorks Quattro); assay type: cell-based; settings: read-out: EP Assay IC50
Description: Several assays may be used to measure functional inhibition of the ROMK channel by compounds of the instant invention. One assay that can be used is an electrophysiology assay that measures the electrical current that is generated as potassium permeates through the channel.
Block of Kir1.1 (ROMK1) currents was examined by whole cell voltage clamp (Hamill et. al. Pfluegers Archives 391:85-100 (1981)) using the IonWorks® Quattro automated electrophysiology platform (Molecular Devices, Sunnyvale, Calif.). Chinese hamster ovary cells stably expressing Kir1.1 channels were maintained in T-75 flasks in cell culture media in a humidified 10% CO2 incubator at 37° C. Prior to an experiment, Kir1.1 expression was induced by overnight incubation with 1 mM sodium butyrate. On the day of the experiment, cells were dissociated with 2.5 ml of Versene™ (Invitrogen 15040-066) for approximately 6 minutes at 37° C. and suspended in 10 ml of bath solution containing (in mM): 150 NaCl, 10 KCl, 2.7 CaCl2, 0.5 MgCl2, 5 HEPES, pH 7.4. After centrifugation, the cell pellet was resuspended in approximately 4.0 ml of bath solution and placed in the IonWorks® instrument. The intracellular solution consisted of (in mM): 80 K gluconate, 40 KCl, 20 KF, 3.2 MgCl2, 3 EGTA, 5 Hepes, pH 7.4. Electrical access to the cytoplasm was achieved by perforation in 0.13 mg/ml amphotericin B for 4 minutes. Amphotericin B (Sigma A-4888) was prepared as a 40 mg/ml solution in DMSO.
Voltage protocols and current recordings were performed using the IonWorks® HT software/hardware system. Currents were sampled at 1 kHz. No correction for liquid junction potentials was used. The test pulse, consisting of a 100 ms step to 0 mV from a holding potential of −70 mV, followed by a 100 ms voltage ramp from −70 mV to +70 mV, was applied before and after a 6 minutes compound incubation period. Test compounds were prepared by diluting DMSO stock solutions into the bath solution at 3× the final concentration and placed in the instrument in 96-well polypropylene plates. Current amplitudes were measured using the IonWorks® software. To assess compound potency, the fractional block during the voltage step to 0 mV was calculated in Microsoft® Excel (Microsoft, Redmond, Calif.), and dose-response curves were fitted with Igor Pro 4.0 (WaveMetrics, Lake Oswego, Oreg.).

[1] = HEK293 cells stably expressing hROMK (hKir1.1), read-out: Thallium Flux Assay IC50
[2] = Chinese hamster ovary cells stably expressing Kir1.1, block during voltage step to 0 mV
[3] = read-out: Thallium Flux Assay IC50

Chain of Kir1.1 (ROMK1) (P48048 whole entry, species assumed): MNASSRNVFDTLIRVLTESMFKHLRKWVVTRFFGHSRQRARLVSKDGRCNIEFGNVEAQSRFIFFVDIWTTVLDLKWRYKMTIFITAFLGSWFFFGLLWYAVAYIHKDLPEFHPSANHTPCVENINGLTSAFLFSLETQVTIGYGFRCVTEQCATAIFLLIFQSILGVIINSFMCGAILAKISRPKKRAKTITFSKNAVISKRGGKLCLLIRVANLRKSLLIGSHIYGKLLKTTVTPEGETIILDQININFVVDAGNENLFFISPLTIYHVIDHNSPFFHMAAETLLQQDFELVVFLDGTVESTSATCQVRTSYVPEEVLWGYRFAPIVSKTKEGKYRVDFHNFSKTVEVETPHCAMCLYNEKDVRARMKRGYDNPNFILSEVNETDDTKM
Chain of hROMK (hKir1.1) (P48048 whole entry): as the sequence (P48048 whole entry, species assumed) above

Compound	pIC50 (hROMK (hKir1.1); [1])	pIC50 (Kir1.1 (ROMK1); [2])	pIC50 (Kir1.1 (ROMK1))	also measured
O=C1OCCc2cc(CCN3CCN(CC(O)c4ccc5c(c4C(F)(F)F)COC5=O)CC3)ccc21 (stereo not shown) [Example 33, 6-(2-(4-(2-Hydroxy-2-(1-oxo-4-(trifluoromethyl)-1,3-dihydroisobenzofuran-5-yl)ethyl)piperazin-1-yl)ethyl)isochroman-1-one]	6.53	7.42		
Cc1c([C@@H](O)CN2[C@@H]3CC[C@H]2CN(C(=O)c2ccc(-n4cnnn4)nc2)C3)ccc2c1COC2=O [Example 12, 5-((R)-2-((1R,5S)-3-(6-(1H-Tetrazol-1-yl)nicotinoyl)-3,8-diazabicyclo[3.2.1]octan-8-yl)-1-hydroxyethyl)-4-methylisobenzofuran-1 (3H)-one]	6.47	6.85		
COc1cc(C(O)CN2C3COCC2CN(C[C@H](O)c2ccc4c(c2C)COC4=O)C3)ncc1C#N (stereo in doubt) [Example 25, (R)-6-(1-Hydroxy-2-(7-(2-hydroxy-2-(4-methyl-1-oxo-1,3-dihydroisobenzofuran-5-yl)ethyl)-3-oxa-7,9 diazabicyclo[3.3.1]nonan-9-yl)ethyl)-4-methoxynicotinonitrile]	7.69		6.96	
Cc1c([C@@H](O)CN2C3COCC2CN(CC(O)c2ccc(C#N)cn2)C3)ccc2c1COC2=O (stereo partly drawn) [Example 19, 6-(1-Hydroxy-2-(9-((R)-2-hydroxy-2-(4-methyl-1-oxo-1,3-dihydroisobenzofuran-5-yl)ethyl)-3-oxa-7,9-diazabicyclo[3.3.1]nonan-7-yl)ethyl)nicotinonitrile]	5.79			
Cc1c([C@@H](O)CN2CCN(CC(O)c3ccc(-n4cnnn4)nc3)CC2)ccc2c1COC2=O (single isomer, unassigned) [Example 34B]			7.85	pIC50 (hROMK (hKir1.1); [3]): 6.83
Cc1c([C@@H](O)CN2C[C@H]3CC[C@@H](C2)N3S(=O)(=O)c2ccc(-n3cnnn3)cc2)ccc2c1COC2=O [Example 16]			7.27	pIC50 (hROMK (hKir1.1); Thallium Flux Assay IC50): 6.40
Cc1c([C@@H](O)CN2C3COCC2CN(CCc2ccc4c(c2)C[C@H](C)OC4=O)C3)ccc2c1COC2=O [Example 22, (S)-6-(2-(9-((R)-2-Hydroxy-2-(4-methyl-1-oxo-1,3-dihydroisobenzofuran-5-yl)ethyl)-3-oxa-7,9-diazabicyclo[3.3.1]nonan-7-yl)ethyl)-3-methylisochroman-1-one]			7.49	pIC50 (hROMK (hKir1.1); Thallium Flux Assay IC50): 7.37
Cc1c([C@@H](O)CN2CCN(c3ccc(C#N)cn3)CC2)ccc2c1COC2=O [Example 11, (R)-6-(4-(2-Hydroxy-2-(4-methyl-1-oxo-1,3-dihydroisobenzofuran-5-yl)ethyl)piperazin-1-yl)nicotinonitrile]	6.13	7.27		
Cc1c([C@@H](O)CN2CCN(CC(O)c3ccc(-n4cnnn4)nc3)CC2)ccc2c1COC2=O (single isomer, unassigned) [Example 34A]			7.46	pIC50 (hROMK (hKir1.1); [3]): 6.53
Cc1c([C@@H](O)CN2C3COCC2CN(CCc2ccc4c(c2)C[C@@H](C)OC4=O)C3)ccc2c1COC2=O [Example 21, (R)-6-(2-(9-((R)-2-Hydroxy-2-(4-methyl-1-oxo-1,3-dihydroisobenzofuran-5-yl)ethyl)-3-oxa-7,9-diazabicyclo[3.3.1]nonan-7-yl)ethyl)-3-methylisochroman-1-one]			7.35	pIC50 (hROMK (hKir1.1); Thallium Flux Assay IC50): 7.44
Cc1c([C@@H](O)CN2CCN(C[C@H](O)c3ccc4c(c3C)COC4=O)C3(CCCC3)C2)ccc2c1COC2=O [Example 1, 5,5′-{6,9-Diazaspiro[4.5]decane-6,9-diylbis[(1R)-1-hydroxyethane-2,1-diyl]}bis(4-methyl-2-benzofuran-1(3H)-one)]	6.51	6.87		
Cc1c([C@@H](O)CN2[C@@H]3CC[C@H]2CN(c2ccc(C#N)cn2)C3)ccc2c1COC2=O [Example 10, 6-((1R,5S)-8-((R)-2-Hydroxy-2-(4-methyl-1-oxo-1,3-dihydroisobenzofuran-5-yl)ethyl)-3,8-diazabicyclo[3.2.1]octan-3-yl)nicotinonitrile]	6.19	6.50		
Cc1c([C@@H](O)CN2CCN(C[C@H](O)c3ccc4c(c3)C[C@H](C)OC4=O)CC2)ccc2c1COC2=O (single isomer, unassigned) [Example 37A]	6.16	7.15		
Cc1c([C@@H](O)CN2CCCCN(C[C@H](O)c3ccc4c(c3C)COC4=O)CC2)ccc2c1COC2=O [Example 27, 5,5′-(1R,1′R)-2,2′-(1,4-Diazocane-1,4-diyl)bis(1-hydroxyethane-2,1-diyl)bis(4-methylisobenzofuran-1(3H)-one)]	6.16			
Cc1c([C@@H](O)CN2C3CCC2C2CCC3N2CC(O)c2ccc(C#N)cn2)ccc2c1COC2=O (single isomer, unassigned) [Example 8]	6.04			
Cc1c([C@@H](O)CN2C3COCC2CN(CC(O)c2ccc4c(c2)C[C@@H](C)OC4=O)C3)ccc2c1COC2=O (single isomer, unassigned) [Example 24A]				pIC50 (hROMK (hKir1.1); Thallium Flux Assay IC50): 5.69
Cc1c([C@@H](O)CN2CCN(C[C@@H](O)c3ccc4c(c3)CCS4(=O)=O)CC2)ccc2c1COC2=O (single isomer, unassigned) [Example 43B]	7.28			
Cc1c([C@@H](O)CN2CC3CCC2CN3S(=O)(=O)c2ccc(-n3cnnn3)cc2)ccc2c1COC2=O (single isomer, unassigned) [Example 17B]	6.00			
Cc1c([C@@H](O)CN2CCN(C[C@H](O)c3ccc4c(c3C)COC4=O)C3(CC3)C2)ccc2c1COC2=O [Example 4, 5,5′-(1R,1′R)-2,2′-(4,7-Diazaspiro[2.5]octane-4,7-diyl)bis(1-hydroxyethane-2,1-diyl)bis(4-methylisobenzofuran-1(3H)-one)]				pIC50 (hROMK (hKir1.1); Thallium Flux Assay IC50): 6.20
